From patent publication US20250312352A1, “GLP-1R MODULATING COMPOUNDS” (Gilead Sciences, Inc., priority 2021, published 2025)

molecular target: T1, GLP-1R (Homo sapiens, UniProt P43220); experiment: GLP-1R activation cAMP assay (Assay 1 or Assay 2); format: cell-based; conditions: cAMP increase in CHO cells stably expressing GLP-1R; compounds run on one of the two cAMP assays
T1 construct: host or cells: CHO cells
How it was run: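 EC50 values come from a sigmoidal fit of HTRF-detected cAMP rise versus log agonist concentration. GLP-1R-expressing CHO cells, equilibrated 1 h at 37 °C in HBSS with HEPES and BSA, received a 10-point compound dose series for 30 min before detection.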

T1 sequence (P43220 24-463): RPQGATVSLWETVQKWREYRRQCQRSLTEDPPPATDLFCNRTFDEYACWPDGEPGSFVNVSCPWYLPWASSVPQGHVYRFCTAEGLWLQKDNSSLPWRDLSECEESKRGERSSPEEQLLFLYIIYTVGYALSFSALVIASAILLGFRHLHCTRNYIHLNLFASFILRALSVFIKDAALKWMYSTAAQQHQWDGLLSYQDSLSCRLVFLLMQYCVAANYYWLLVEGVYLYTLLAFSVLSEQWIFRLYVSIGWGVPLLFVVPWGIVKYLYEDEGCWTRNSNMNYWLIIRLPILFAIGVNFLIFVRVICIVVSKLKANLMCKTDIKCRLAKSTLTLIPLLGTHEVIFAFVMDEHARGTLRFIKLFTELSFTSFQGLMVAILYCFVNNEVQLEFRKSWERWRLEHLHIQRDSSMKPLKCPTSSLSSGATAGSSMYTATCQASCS

| EC50 [nM] | Compound |
| --- | --- |
| 0.07 | COc1cc(C(=O)NC2(C#N)CC2)ncc1COc1cccc(-c2cc(F)c(Cc3nc4c(F)cc(C(=O)O)cc4n3C[C@@H]3CCO3)cc2F)n1 [Example 42, (S)-2-(4-(6-((6-((1-cyanocyclopropyl)carbamoyl)-4-methoxypyridin-3-yl)methoxy)pyridin-2-yl)-2,5-difluorobenzyl)-4-fluoro-1-(oxetan-2-ylmethyl)-1H-benzo[d]imidazole-6-carboxylic acid] |
| 28 | Cc1nc(COc2cccc(-c3cc(F)c(Cc4nc5ccc(C(=O)O)cc5n4C[C@@H]4CCO4)cc3F)n2)cn1C(F)F [Example 180, (S)-2-(4-(6-((1-(difluoromethyl)-2-methyl-1H-imidazol-4-yl)methoxy)pyridin-2-yl)-2,5-difluorobenzyl)-1-(oxetan-2-ylmethyl)-1H-benzo[d]imidazole-6-carboxylic acid] |
| 0.195 | CC1(C)COC[C@H]1n1c(Cc2cc(F)c(-c3cccc(OCc4nnc(C5CC5)s4)n3)cc2F)nc2ccc(C(=O)O)cc21 [Example 431, (S)-2-(4-(6-((5-cyclopropyl-1,3,4-thiadiazol-2-yl)methoxy)pyridin-2-yl)-2,5-difluorobenzyl)-1-(4,4-dimethyltetrahydrofuran-3-yl)-1H-benzo[d]imidazole-6-carboxylic acid] |
| 0.583 | Cc1cc(Cc2nc3ccc(C(=O)O)cc3n2[C@@H]2COCC2(C)C)c(F)cc1-c1cccc(OCc2ncc(Cl)s2)n1 [Example 257, (S)-2-(4-(6-((5-chlorothiazol-2-yl)methoxy)pyridin-2-yl)-2-fluoro-5-methylbenzyl)-1-(4,4-dimethyltetrahydrofuran-3-yl)-1H-benzo[d]imidazole-6-carboxylic acid] |
| 0.99 | Cn1cc(C#Cc2cc(F)c(COc3cccc(-c4cc(F)c(Cc5nc6ccc(C(=O)O)cc6n5C[C@@H]5CCO5)cc4F)n3)cn2)cn1 [Example 144, (S)-2-(2,5-difluoro-4-(6-((4-fluoro-6-((1-methyl-1H-pyrazol-4-yl)ethynyl)pyridin-3-yl)methoxy)pyridin-2-yl)benzyl)-1-(oxetan-2-ylmethyl)-1H-benzo[d]imidazole-6-carboxylic acid] |
| 0.14 | O=C(O)c1ccc2nc(Cc3cc(F)c(-c4cccc(OCc5ncc(-c6cncs6)s5)n4)cc3F)n(C[C@@H]3CCO3)c2c1 [Example 101, (S)-2-(4-(6-([5,5′-bithiazol]-2-ylmethoxy)pyridin-2-yl)-2,5-difluorobenzyl)-1-(oxetan-2-ylmethyl)-1H-benzo[d]imidazole-6-carboxylic acid] |
| 0.61 | O=C(O)c1ccc2nc(Cc3cc(F)c(-c4cccc(OCc5cc6n(n5)CC5(CC5)C6)n4)cc3F)n(C[C@@H]3CCO3)c2c1 [Example 75, (S)-2-(4-(6-((4′,6′-dihydrospiro[cyclopropane-1,5′-pyrrolo[1,2-b]pyrazol]-2′-yl)methoxy)pyridin-2-yl)-2,5-difluorobenzyl)-1-(oxetan-2-ylmethyl)-1H-benzo[d]imidazole-6-carboxylic acid] |
| 0.29 | Cn1nccc1NC(=O)c1cc(Cl)c(COc2cccc(-c3cc(F)c(Cc4nc5ccc(C(=O)O)cc5n4C[C@@H]4CCO4)cc3F)n2)cn1 [Example 196, (S)-2-(4-(6-((4-chloro-6-((1-methyl-1H-pyrazol-5-yl)carbamoyl)pyridin-3-yl)methoxy)pyridin-2-yl)-2,5-difluorobenzyl)-1-(oxetan-2-ylmethyl)-1H-benzo[d]imidazole-6-carboxylic acid] |
| 0.087 | CCOc1nnc(COc2nc(-c3cc(Cl)c(Cc4nc5c(F)cc(C(=O)O)cc5n4[C@@H]4COCC4(C)C)cc3C)ccc2F)s1 [Example 421, (S)-2-(2-chloro-4-(6-((5-ethoxy-1,3,4-thiadiazol-2-yl)methoxy)-5-fluoropyridin-2-yl)-5-methylbenzyl)-1-(4,4-dimethyltetrahydrofuran-3-yl)-4-fluoro-1H-benzo[d]imidazole-6-carboxylic acid] |
| 6.52 | O=C(O)c1ccc2nc(Cc3cc(F)c(-c4cccc(OCc5nnc(C6CC6)o5)n4)cc3F)n(C[C@@H]3CCO3)c2c1 [Example 67, (S)-2-(4-(6-((5-cyclopropyl-1,3,4-oxadiazol-2-yl)methoxy)pyridin-2-yl)-2,5-difluorobenzyl)-1-(oxetan-2-ylmethyl)-1H-benzo[d]imidazole-6-carboxylic acid] |
| 5.53 | Cn1cc(-n2ccc(COc3cccc(-c4cc(F)c(Cc5nc6ccc(C(=O)O)cc6n5C[C@@H]5CCO5)cc4F)n3)n2)cn1 [Example 82, (S)-2-(2,5-difluoro-4-(6-((1′-methyl-1′H-[1,4′-bipyrazol]-3-yl)methoxy)pyridin-2-yl)benzyl)-1-(oxetan-2-ylmethyl)-1H-benzo[d]imidazole-6-carboxylic acid] |
| 0.931 | Cc1cc(Cc2nc3c(F)cc(C(=O)O)cc3n2[C@@H]2COCC2(C)C)c(Cl)cc1-c1ccc(F)c(OCc2ncc(C(C)(F)F)s2)n1 [Example 426, (S)-2-(2-chloro-4-(6-((5-(1,1-difluoroethyl)thiazol-2-yl)methoxy)-5-fluoropyridin-2-yl)-5-methylbenzyl)-1-(4,4-dimethyltetrahydrofuran-3-yl)-4-fluoro-1H-benzo[d]imidazole-6-carboxylic acid] |
| 0.06 | Cn1cc(-c2cnc(COc3cccc(-c4cc(F)c(Cc5nc6ccc(C(=O)O)cc6n5C[C@@H]5CCO5)cc4F)n3)s2)cn1 [Example 79, 2-[[2,5-difluoro-4-[6-[[5-(1-methylpyrazol-4-yl)thiazol-2-yl]methoxy]-2-pyridyl]phenyl]methyl]-3-[[(2S)-oxetan-2-yl]methyl]benzimidazole-5-carboxylic acid] |
| 0.611 | CNC(=O)c1cc(Cl)c(COc2cccc(-c3cc(F)c(Cc4nc5ccc(C(=O)O)cc5n4CC4(CF)CC4)c(F)c3F)c2)cn1 [Example 451, 2-((3′-((4-chloro-6-(methylcarbamoyl)pyridin-3-yl)methoxy)-2,3,5-trifluoro-[1,1′-biphenyl]-4-yl)methyl)-1-((1-(fluoromethyl)cyclopropyl)methyl)-1H-benzo[d]imidazole-6-carboxylic acid] |
| 0.459 | CC1(COc2nnc(COc3cccc(-c4cc(F)c(Cc5nc6ccc(C(=O)O)cc6n5C[C@@H]5CCO5)cc4F)n3)s2)CC1 [Example 343, (S)-2-(2,5-difluoro-4-(6-((5-((1-methylcyclopropyl)methoxy)-1,3,4-thiadiazol-2-yl)methoxy)pyridin-2-yl)benzyl)-1-(oxetan-2-ylmethyl)-1H-benzo[d]imidazole-6-carboxylic acid] |
| 2.87 | Cn1nccc1-c1cnc(COc2cccc(-c3cc(F)c(Cc4nc5ccc(C(=O)O)cc5n4C[C@@H]4CCO4)cc3F)n2)s1 [Example 94, (S)-2-(2,5-difluoro-4-(6-((5-(1-methyl-1H-pyrazol-5-yl)thiazol-2-yl)methoxy)pyridin-2-yl)benzyl)-1-(oxetan-2-ylmethyl)-1H-benzo[d]imidazole-6-carboxylic acid] |
| 0.134 | CCOc1nnc(COc2nc(-c3cc(F)c(Cc4nc5ccc(C(=O)O)cc5n4[C@@H]4COCC4(C)C)cc3C)ccc2F)s1 [Example 262, (S)-1-(4,4-dimethyltetrahydrofuran-3-yl)-2-(4-(6-((5-ethoxy-1,3,4-thiadiazol-2-yl)methoxy)-5-fluoropyridin-2-yl)-2-fluoro-5-methylbenzyl)-1H-benzo[d]imidazole-6-carboxylic acid] |
| 0.323 | CCOc1nc(C)c(COc2cccc(-c3cc(F)c(Cc4nc5ccc(C(=O)O)cc5n4C[C@@H]4CCO4)cc3F)n2)s1 [Example 349, (S)-2-(4-(6-((2-ethoxy-4-methylthiazol-5-yl)methoxy)pyridin-2-yl)-2,5-difluorobenzyl)-1-(oxetan-2-ylmethyl)-1H-benzo[d]imidazole-6-carboxylic acid] |
| 0.25 | O=C(O)c1ccc2nc(Cc3cc(F)c(-c4cccc(OCc5cnc(C(=O)NC6COC6)cc5F)n4)cc3F)n(C[C@@H]3CCO3)c2c1 [Example 247, (S)-2-(2,5-difluoro-4-(6-((4-fluoro-6-(oxetan-3-ylcarbamoyl)pyridin-3-yl)methoxy)pyridin-2-yl)benzyl)-1-(oxetan-2-ylmethyl)-1H-benzo[d]imidazole-6-carboxylic acid] |
| 0.196 | Cn1cc(C#Cc2cnc(COc3cccc(-c4cc(F)c(Cc5nc6c(F)cc(C(=O)O)cc6n5CC5(CF)CC5)cc4F)n3)c(F)c2)cn1 [Example 274, 2-(2,5-difluoro-4-(6-((3-fluoro-5-((1-methyl-1H-pyrazol-4-yl)ethynyl)pyridin-2-yl)methoxy)pyridin-2-yl)benzyl)-4-fluoro-1-((1-(fluoromethyl)cyclopropyl)methyl)-1H-benzo[d]imidazole-6-carboxylic acid] |
| 1.43 | N#Cc1csc(COc2cccc(-c3cc(F)c(Cc4nc5ccc(C(=O)O)cc5n4C[C@@H]4CCO4)cc3F)n2)n1 [Example 23, (S)-2-(4-(6-((4-cyanothiazol-2-yl)methoxy)pyridin-2-yl)-2,5-difluorobenzyl)-1-(oxetan-2-ylmethyl)-1H-benzo[d]imidazole-6-carboxylic acid] |

| Compound | EC50 [nM] |
| --- | --- |
| CC(C)(C)OC(=O)N[C@H]1C[C@@H](n2cc(-c3ccc(COc4cccc(-c5cc(F)c(Cc6nc7ccc(C(=O)O)cc7n6C[C@@H]6CCO6)cc5F)n4)c(F)c3)nn2)C1 [Example 219, 2-(4-(6-((4-(1-((1s,3s)-3-((tert-butoxycarbonyl)amino)cyclobutyl)-1H-1,2,3-triazol-4-yl)-2-fluorobenzyl)oxy)pyridin-2-yl)-2,5-difluorobenzyl)-1-(((S)-oxetan-2-yl)methyl)-1H-benzo[d]imidazole-6-carboxylic acid] | 0.85 |
| (S)-2-(4-(6-((5-cyano-3-fluorothiophen-2-yl)methoxy)-5-fluoropyridin-2-yl)-2,5-difluorobenzyl)-4-fluoro-1-(oxetan-2-ylmethyl)-1H-benzo[d]imidazole-6-carboxylic acid [Example 310] | 0.038 |
